# Assay results published in patent publication US11964953B2, “Substituted aminothiazoles as DGKzeta inhibitors for immune activation” (Bayer Aktiengesellschaft, priority 2020, dated 2024).
# Molecular target: human DGKζ (Homo sapiens (Human), UniProt Q13574)
# Test: Human DGKζ kinase activity inhibition assay (ADP-Glo)
# Assay type: biochemical
# Settings: in vitro human DGKζ kinase activity inhibition assay; read-out: IC50
# Procedure, shortened: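 Enzyme was C-terminally FLAG-tagged full-length recombinant human DGKζ from baculovirus-infected insect cells. Substrate preparation used octyl-β-D-glucopyranoside in 50 mM MOPS pH 7.4 with sonication; ADP generated was quantified by ADP-Glo luminescence as activity measure.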
# Chain of human DGKζ (Q13574 other isoform, or with tags, fused parts or gaps): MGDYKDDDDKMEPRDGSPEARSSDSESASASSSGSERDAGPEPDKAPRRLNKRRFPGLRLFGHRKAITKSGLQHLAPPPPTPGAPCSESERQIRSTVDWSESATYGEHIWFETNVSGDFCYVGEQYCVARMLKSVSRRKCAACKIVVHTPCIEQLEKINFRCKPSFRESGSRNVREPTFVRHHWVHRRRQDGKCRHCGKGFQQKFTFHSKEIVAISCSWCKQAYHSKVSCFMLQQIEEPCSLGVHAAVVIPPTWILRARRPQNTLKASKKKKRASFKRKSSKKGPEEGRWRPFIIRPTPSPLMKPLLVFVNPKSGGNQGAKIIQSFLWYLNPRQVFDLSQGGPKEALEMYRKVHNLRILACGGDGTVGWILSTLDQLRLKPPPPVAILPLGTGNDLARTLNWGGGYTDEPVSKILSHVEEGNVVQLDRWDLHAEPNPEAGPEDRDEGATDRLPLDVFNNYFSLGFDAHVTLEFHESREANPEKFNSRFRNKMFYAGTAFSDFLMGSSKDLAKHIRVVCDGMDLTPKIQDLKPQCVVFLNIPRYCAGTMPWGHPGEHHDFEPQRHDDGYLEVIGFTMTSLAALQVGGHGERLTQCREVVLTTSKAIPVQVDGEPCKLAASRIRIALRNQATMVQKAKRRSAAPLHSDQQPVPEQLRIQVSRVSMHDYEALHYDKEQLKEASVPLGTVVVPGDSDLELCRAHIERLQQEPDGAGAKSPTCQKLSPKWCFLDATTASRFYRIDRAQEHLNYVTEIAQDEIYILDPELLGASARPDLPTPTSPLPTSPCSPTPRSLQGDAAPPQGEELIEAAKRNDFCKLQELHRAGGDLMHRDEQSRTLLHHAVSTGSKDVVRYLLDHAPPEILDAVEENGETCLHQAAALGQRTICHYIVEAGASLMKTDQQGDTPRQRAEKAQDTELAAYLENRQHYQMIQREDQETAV
row,SMILES,IC50
1,"CC(C(N)=O)N(c1ccc(F)cc1)c1nc(N)c(C(=O)c2ccc(OCC(=O)NCC(F)(F)F)cc2)s1 (racemic) [Example 99, rac-2-(N-[4-amino-5-[4-[2-oxo-2-(2,2,2-trifluoroethylamino)ethoxy]benzoyl]thiazol-2-yl]-4-fluoro-anilino)propanamide]",75.8 nM
2,"CC(C(N)=O)N(c1ccc(F)cc1)c1nc(N)c(C(=O)c2ccc(OCC(=O)N3CCc4ccccc4C3)cc2)s1 (racemic) [Example 133, rac-2-(N-[4-amino-5-[4-[2-(3,4-dihydro-1H-isoquinolin-2-yl)-2-oxo-ethoxy]benzoyl]thiazol-2-yl]-4-fluoro-anilino)propanamide]",42.5 nM
3,"COc1ccc(C(=O)c2sc(N(c3ccc(F)c(F)c3)C(C)C(N)=O)nc2N)cn1 (racemic) [Example 52, rac-2-(N-[4-amino-5-(6-methoxypyridine-3-carbonyl)thiazol-2-yl]-3,4-difluoro-anilino)propanamide]",99.2 nM
4,"CC(C(N)=O)N(c1ccc(F)cc1)c1nc(N)c(C(=O)c2ccc(OCC(=O)Nc3ccc(Cl)cc3)cc2)s1 (racemic) [Example 119, rac-2-(N-[4-amino-5-[4-[2-(4-chloroanilino)-2-oxo-ethoxy]benzoyl]thiazol-2-yl]-4-fluoro-anilino)propanamide]",4.54 nM
5,"CC(C(N)=O)N(c1ccc(F)cc1)c1nc(N)c(C(=O)c2cccc(F)c2)s1 (racemic) [Example 16, rac-2-(N-[4-amino-5-(3-fluorobenzoyl)thiazol-2-yl]-4-fluoro-anilino)propanamide]",283 nM
6,"CC(C(N)=O)N(c1ccc(F)cc1)c1nc(N)c(C(=O)c2ccc(NC(=O)OCc3ccccc3)cc2)s1 (racemic) [Example 169, rac-benzyl N-[4-[4-amino-2-(N-(2-amino-1-methyl-2-oxo-ethyl)-4-fluoro-anilino)thiazole-5-carbonyl]phenyl]carbamate]",3 nM
7,"CC(C(N)=O)N(c1nc(N)c(C(=O)c2ccccc2)s1)c1ccc(Cl)cc1F (racemic) [Example 30, rac-2-(N-(4-amino-5-benzoyl-thiazol-2-yl)-4-chloro-2-fluoro-anilino)propanamide]",57.5 nM
8,"CC(C(N)=O)N(c1ccc(Br)cc1)c1nc(N)c(C(=O)c2ccccc2)s1 (racemic) [Example 193, rac-2-(N-(4-amino-5-benzoyl-thiazol-2-yl)-4-bromo-anilino)propanamide]",35 nM
9,"COCCNC(=O)c1ccc(C(=O)c2sc(N(c3ccc(Cl)c(F)c3)C(C)C(N)=O)nc2N)cc1 (racemic) [Example 272, rac-4-[4-amino-2-(N-(2-amino-1-methyl-2-oxo-ethyl)-4-chloro-3-fluoro-anilino)thiazole-5-carbonyl]-N-(2-methoxyethyl)benzamide]",39 nM
10,"COc1ccc(C(=O)c2sc(N(c3ccc(F)c(Cl)c3)C(C)C(N)=O)nc2N)cc1 (single isomer, unassigned) [Example 161.1, 2-(N-[4-amino-5-(4-methoxybenzoyl)thiazol-2-yl]-3-chloro-4-fluoro-anilino)propanamide]",9 nM
11,"COc1ccc(C(=O)c2sc(N(c3ccc(Cl)c(F)c3)C(C)C(N)=O)nc2N)cc1 (racemic) [Example 59, rac-2-(N-[4-amino-5-(4-methoxybenzoyl)thiazol-2-yl]-4-chloro-3-fluoro-anilino)propanamide]",10.3 nM
12,"CC(Oc1ccc(C(=O)c2sc(N(c3ccccc3)C(C)C(N)=O)nc2N)cc1)C(N)=O (single isomer, unassigned) [Example 45.1, 2-(N-[4-amino-5-[4-[2-amino-1-methyl-2-oxo-ethoxy]benzoyl]thiazol-2-yl]anilino)propanamide]",201 nM
13,"CC(C(N)=O)N(c1ccc(OC(F)F)c(Cl)c1)c1nc(N)c(C(=O)c2ccc(OC(F)F)nc2)s1 (racemic) [Example 204, rac-2-[N-[4-amino-5-[6-(difluoromethoxy)pyridine-3-carbonyl]thiazol-2-yl]-3-chloro-4-(difluoromethoxy)anilino]propanamide]",73 nM
14,"CC(C(N)=O)N(c1ccc(F)cc1)c1nc(N)c(C(=O)c2ccc(OCC(=O)NCC(C)(C)C)cc2)s1 (racemic) [Example 141, rac-2-(N-[4-amino-5-[4-[2-(2,2-dimethylpropylamino)-2-oxo-ethoxy]benzoyl]thiazol-2-yl]-4-fluoro-anilino)propanamide]",389 nM
15,"CC(C(N)=O)N(c1ccc(F)cc1)c1nc(N)c(C(=O)c2ccccc2F)s1 (racemic) [Example 8, rac-2-(N-[4-amino-5-(2-fluorobenzoyl)thiazol-2-yl]-4-fluoro-anilino)propanamide]",618 nM
16,"CC(C(N)=O)N(c1ccc(F)cc1)c1nc(N)c(C(=O)c2ccc(Oc3ccccc3)cc2)s1 (racemic) [Example 173, rac-2-(N-[4-amino-5-(4-phenoxybenzoyl)thiazol-2-yl]-4-fluoro-anilino)propanamide]",25 nM

row,SMILES,IC50
1,"COc1ccc(C(=O)c2sc(N(c3ccc(F)c(Cl)c3)C(C)C(N)=O)nc2N)cc1 (single isomer, unassigned) [Example 161.2, 2-(N-[4-amino-5-(4-methoxybenzoyl)thiazol-2-yl]-3-chloro-4-fluoro-anilino)propanamide]",2570 nM
2,"CC(C(N)=O)N(c1cccc(F)c1)c1nc(N)c(C(=O)c2ccccc2)s1 (racemic) [Example 74, rac-2-(N-(4-amino-5-benzoyl-thiazol-2-yl)-3-fluoro-anilino)propanamide]",190 nM
3,"CC(C(N)=O)N(c1nc(N)c(C(=O)c2ccc(OC(F)F)cc2)s1)c1ccc(Cl)cc1F (racemic) [Example 46, rac-2-(N-[4-amino-5-[4-(difluoromethoxy)benzoyl]thiazol-2-yl]-4-chloro-2-fluoro-anilino)propanamide]",7.07 nM
4,"CC(C(N)=O)N(c1ccc(OC(F)F)c(Cl)c1)c1nc(N)c(C(=O)c2ccccc2)s1 (racemic) [Example 194, rac-2-[N-(4-amino-5-benzoyl-thiazol-2-yl)-3-chloro-4-(difluoromethoxy)anilino]propanamide]",66 nM
5,"CC(C(N)=O)N(c1ccc(F)c(F)c1)c1nc(N)c(C(=O)c2ccc(C(F)(F)F)nc2)s1 (single isomer, unassigned) [Example 53.2, 2-(N-[4-amino-5-[6-(trifluoromethyl)pyridine-3-carbonyl]thiazol-2-yl]-3,4-difluoro-anilino)propanamide]",1780 nM
6,"Cc1nc(N(c2ccc(F)cc2)C(C)C(N)=O)sc1C(=O)c1ccccc1 (racemic) [Example 156, rac-2-(N-(5-benzoyl-4-methyl-thiazol-2-yl)-4-fluoro-anilino)propanamide]",231 nM
7,"CC(C)NC(=O)c1ccc(C(=O)c2sc(N(c3ccc(F)cc3)C(C)C(N)=O)nc2N)cc1 (racemic) [Example 261, rac-4-[4-amino-2-(N-(2-amino-1-methyl-2-oxo-ethyl)-4-fluoro-anilino)thiazole-5-carbonyl]-N-isopropyl-benzamide]",90 nM
8,"CC(C(N)=O)N(c1ccc(N(C)C)cc1)c1nc(N)c(C(=O)c2ccccc2)s1 (racemic) [Example 2, rac-2-[N-(4-amino-5-benzoyl-thiazol-2-yl)-4-(dimethylamino)anilino]propanamide]",935 nM
9,"CCOC(=O)COc1ccc(C(=O)c2sc(N(c3ccc(F)cc3)C(C)C(N)=O)nc2N)cc1 (racemic) [Example 81, rac-ethyl 2-[4-[4-amino-2-(4-fluoro-N-[2-amino-1-methyl-2-oxo-ethyl]anilino)thiazole-5-carbonyl]phenoxy]acetate]",8.71 nM
10,"CC(C(N)=O)N(c1ccc(Cl)cc1)c1nc(N)c(C(=O)c2ccncc2)s1 (racemic) [Example 57, rac-2-(N-[4-amino-5-(pyridine-4-carbonyl)thiazol-2-yl]-4-chloro-anilino)propanamide]",155 nM
11,"CC(C(N)=O)N(c1ccc(OC(F)F)nc1)c1nc(N)c(C(=O)c2ccc(OC(F)F)nc2)s1 (racemic) [Example 255, rac-2-[[4-amino-5-[6-(difluoromethoxy)pyridine-3-carbonyl]thiazol-2-yl]-[6-(difluoromethoxy)-3-pyridyl]amino]propanamide]",76 nM
12,"CC(C)NC(=O)C(C)(C)Oc1ccc(C(=O)c2sc(N(c3ccc(F)cc3)C(C)C(N)=O)nc2N)cc1 (racemic) [Example 154, rac-2-[4-[4-amino-2-(N-(2-amino-1-methyl-2-oxo-ethyl)-4-fluoro-anilino)thiazole-5-carbonyl]phenoxy]-N-isopropyl-2-methyl-propanamide]",55.6 nM
13,"CC(C(N)=O)N(c1ccc(OCc2ccccc2)cc1)c1nc(N)c(C(=O)c2ccc(OC(F)F)cc2)s1 (single isomer, unassigned) [Example 182.1, 2-(N-[4-amino-5-[4-(difluoromethoxy)benzoyl]thiazol-2-yl]-4-benzyloxy-anilino)propanamide]",84 nM
14,"CC(C(N)=O)N(c1ccc(F)cc1)c1nc(N)c(C(=O)c2ccc(F)cc2)s1 (racemic) [Example 64, rac-2-(N-[4-amino-5-(4-fluorobenzoyl)thiazol-2-yl]-4-fluoro-anilino)propanamide]",55.8 nM
15,"CC(C(N)=O)N(c1ccc(F)cc1)c1nc(N)c(C(=O)c2ccc(N3CCC(C)(C#N)CC3)nc2)s1 (single isomer, unassigned; enantiomer 1) [Example 285.1, 2-(N-[4-amino-5-[6-(4-cyano-4-methyl-1-piperidyl)pyridine-3-carbonyl]thiazol-2-yl]-4-fluoro-anilino)propanamide (enantiomer 1)]",34 nM
16,"CC(C(N)=O)N(c1ccc(F)cc1)c1nc(N)c(C(=O)c2ccc(OCC(=O)NCC(O)CO)cc2)s1 (racemic) [Example 116, 2-(N-[4-amino-5-(4-[2-(2,3-dihydroxypropylamino)-2-oxo-ethoxy]benzoyl]thiazol-2-yl]-4-fluoro-anilino)propanamide]",581 nM
